How the values were obtained:
Assay in all cases: relative viability (nuclei count vs DMSO), 5 days (fraction); higher = more cells survive
Ispinesib + Foretinib = compound: Cc1ccc(C(=O)N(CCCN)[C@@H](c2nc3cc(Cl)ccc3c(=O)n2Cc2ccccc2)C(C)C)cc1 [Ispinesib] + COc1cc2c(Oc3ccc(NC(=O)C4(C(=O)Nc5ccc(F)cc5)CC4)cc3F)ccnc2cc1OCCCN1CCOCC1 [Foretinib] (partner 0.25 µM)
Procedure, shortened: (§1)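 Each reported value is a median over duplicate plates. It expresses relative viability: treated-well nuclei count divided by vehicle-well nuclei count. Lung cancer cell lines in 1536-well plates were dosed by pin tool a day after seeding, alone with one drug or with a fixed anchor-drug dose plus five library-drug doses (not always all listed) in √10 steps, and nuclei were counted after 5 days.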

Ispinesib + Tozasertib = compound: Cc1ccc(C(=O)N(CCCN)[C@@H](c2nc3cc(Cl)ccc3c(=O)n2Cc2ccccc2)C(C)C)cc1 [Ispinesib] + Cc1cc(Nc2cc(N3CCN(C)CC3)nc(Sc3ccc(NC(=O)C4CC4)cc3)n2)n[nH]1 [Tozasertib] (partner 0.1 µM)
Procedure, shortened: as §1

Ispinesib + Olaparib = compound: Cc1ccc(C(=O)N(CCCN)[C@@H](c2nc3cc(Cl)ccc3c(=O)n2Cc2ccccc2)C(C)C)cc1 [Ispinesib] + O=C(c1cc(Cc2n[nH]c(=O)c3ccccc23)ccc1F)N1CCN(C(=O)C2CC2)CC1 [Olaparib] (partner 8 µM)
Procedure, shortened: as §1

Ispinesib + Pictilisib = compound: Cc1ccc(C(=O)N(CCCN)[C@@H](c2nc3cc(Cl)ccc3c(=O)n2Cc2ccccc2)C(C)C)cc1 [Ispinesib] + CS(=O)(=O)N1CCN(Cc2cc3nc(-c4cccc5[nH]ncc45)nc(N4CCOCC4)c3s2)CC1 [Pictilisib] (partner 1 µM)
Procedure, shortened: as §1

Cell Line | relative viability (Ispinesib + Foretinib; first compound 0.001 µM) | relative viability (Ispinesib + Foretinib; first compound 0.003162 µM) | relative viability (Ispinesib + Foretinib; first compound 0.01 µM) | relative viability (Ispinesib + Foretinib; first compound 0.03162 µM) | relative viability (Ispinesib + Foretinib; first compound 0.1 µM) | relative viability (Ispinesib + Tozasertib; first compound 0.001 µM) | relative viability (Ispinesib + Tozasertib; first compound 0.003162 µM) | relative viability (Ispinesib + Tozasertib; first compound 0.01 µM) | relative viability (Ispinesib + Tozasertib; first compound 0.03162 µM) | relative viability (Ispinesib + Tozasertib; first compound 0.1 µM) | relative viability (Ispinesib + Olaparib; first compound 0.001 µM) | relative viability (Ispinesib + Olaparib; first compound 0.003162 µM) | relative viability (Ispinesib + Olaparib; first compound 0.01 µM) | relative viability (Ispinesib + Olaparib; first compound 0.03162 µM) | relative viability (Ispinesib + Olaparib; first compound 0.1 µM) | relative viability (Ispinesib + Pictilisib; first compound 0.001 µM) | relative viability (Ispinesib + Pictilisib; first compound 0.003162 µM) | relative viability (Ispinesib + Pictilisib; first compound 0.01 µM) | relative viability (Ispinesib + Pictilisib; first compound 0.03162 µM) | relative viability (Ispinesib + Pictilisib; first compound 0.1 µM)
SW 1573 | 0.978 | 0.893 | 0.907 | 1.1 | 0.32 | 0.18 | 0.19 | 0.174 | 0.194 | 0.131 | 0.541 | 0.421 | 0.447 | 0.142 | 0.185 | 0.483 | 0.469 | 0.715 | 0.474 | 0.232
COR-L23 | 0.959 | 1.03 | 1.16 | 0.412 | 0.146 | 0.26 | 0.231 | 0.204 | 0.178 | 0.152 | 0.31 | 0.34 | 0.308 | 0.226 | 0.138 | 0.895 | 0.863 | 0.908 | 0.181 | 0.235
NCI-H1755 | 0.909 | 0.987 | 1.01 | 0.874 | 0.737 | 0.529 | 0.627 | 0.595 | 0.638 | 0.46 | 0.909 | 0.928 | 0.963 | 0.987 | 0.759 | 0.403 | 0.464 | 0.534 | 0.22 | 0.194
LOU-NH91 | 0.917 | 0.879 | 0.957 | 0.829 | 0.472 | 0.677 | 0.638 | 0.76 | 0.584 | 0.347 | 0.929 | 0.915 | 0.969 | 0.906 | 0.369 | 0.482 | 0.54 | 0.508 | 0.427 | 0.256
EMC-BAC-2 | 1.03 | 0.621 | 0.997 | 0.818 | 0.39 | 0.28 | 0.189 | 0.289 | 0.292 | 0.261 | 0.479 | 0.474 | 0.513 | 0.418 | 0.325 | 0.553 | 0.568 | 0.539 | 0.413 | 0.239
ChaGo-K-1 | 0.909 | 0.867 | 0.993 | 0.926 | 0.629 | 0.22 | 0.225 | 0.234 | 0.248 | 0.222 | 0.399 | 0.449 | 0.431 | 0.445 | 0.382 | 0.895 | 1.3 | 0.659 | 0.397 | 0.312
NCI-H2023 | 0.966 | 0.755 | 0.807 | 0.457 | 0.168 | 0.378 | 0.399 | 0.378 | 0.211 | 0.202 | 0.543 | 0.553 | 0.511 | 0.271 | 0.232 | 0.271 | 0.237 | 0.273 | 0.0793 | 0.125
EKVX | 0.897 | 0.85 | 1.05 | 0.604 | 0.275 | 0.417 | 0.386 | 0.424 | 0.373 | 0.223 | 0.83 |  | 1.05 | 0.831 | 0.317 | 0.442 | 0.423 | 0.508 | 0.543 | 0.438
NCI-H2085 | 0.838 | 1.06 | 1.05 | 0.848 | 0.371 | 0.881 | 0.855 | 1 | 0.76 | 0.651 | 0.747 | 0.779 | 0.845 | 0.792 | 0.544 | 0.485 | 0.406 | 0.504 | 0.43 | 0.307
NCI-H3122 | 0.977 | 1.01 | 1.08 | 1.07 | 0.207 | 0.408 | 0.402 | 0.462 | 0.212 | 0.17 | 0.674 | 0.683 | 0.743 | 0.615 | 0.524 | 0.601 | 0.838 | 0.635 | 0.569 | 0.162
HCC-827 | 1.04 | 1.02 | 1.05 | 0.936 | 0.684 | 0.43 | 0.534 | 0.43 | 0.446 | 0.372 | 0.652 | 0.672 | 0.67 | 0.686 | 0.601 | 0.979 | 0.964 | 1.05 | 0.8 | 0.734
HARA | 1.18 | 0.931 | 0.976 | 1.04 | 0.132 | 0.151 | 0.115 | 0.332 | 0.0895 | 0.107 | 1.03 | 0.83 | 0.592 | 0.707 | 0.316 | 0.445 | 0.43 | 0.392 | 0.467 | 0.179
NCI-H441 | 0.926 | 1 | 1.19 | 0.419 | 0.291 | 0.681 | 0.603 | 0.673 | 0.258 | 0.341 | 0.529 | 0.516 | 0.631 | 0.237 | 0.247 | 0.441 | 0.505 | 0.468 | 0.145 | 0.209
SK-MES-1 | 1.01 | 1.02 | 0.993 | 0.928 | 0.256 | 0.983 | 1.03 | 0.949 | 0.217 | 0.215 | 0.762 | 0.788 | 0.648 | 0.201 | 0.228 | 0.374 | 0.334 | 0.447 | 0.35 | 0.24
HCC-15 | 1.1 | 1.02 | 1.1 | 0.561 | 0.188 | 0.48 | 0.414 | 0.505 | 0.281 | 0.227 | 0.683 | 0.759 | 0.917 | 0.831 | 0.445 | 0.878 | 0.864 | 0.812 | 0.459 | 0.139
ABC-1 | 1.37 | 1.35 | 1.11 | 0.507 | 0.382 | 0.197 | 0.174 | 0.21 | 0.182 | 0.184 | 1.04 | 0.955 | 0.838 |  | 0.41 | 0.656 | 0.678 | 0.692 | 0.301 | 0.339
EPLC-272H | 0.793 | 0.657 | 0.659 | 0.322 | 0.23 | 0.211 | 0.448 | 0.24 | 0.114 | 0.25 | 0.776 | 0.781 | 0.769 | 0.308 | 0.155 | 0.295 | 0.337 | 0.338 | 0.258 | 0.142
NCI-H2009 | 1.28 | 1.33 | 1.32 | 1.09 | 0.431 | 0.788 | 0.837 | 0.786 | 0.706 | 0.489 | 0.735 | 0.678 | 0.793 | 0.859 | 0.257 | 0.782 | 0.804 | 0.58 | 0.0875 | 0.173
NCI-H661 | 0.943 | 1.03 | 0.988 | 0.71 | 0.27 | 0.355 | 0.396 | 0.384 | 0.379 | 0.369 | 0.737 | 0.848 | 0.805 | 0.505 | 0.255 | 0.387 | 0.471 | 0.41 | 0.31 | 0.332
NCI-H520 | 0.906 | 0.832 | 0.866 | 0.379 | 0.306 | 0.419 | 0.466 | 0.41 | 0.499 | 0.422 | 0.364 | 0.328 | 0.388 | 0.188 | 0.278 | 0.353 | 0.276 | 0.295 | 0.181 | 0.172
NCI-H2405 | 1.04 | 1.06 | 1.02 | 1.07 | 0.978 | 0.798 | 0.7 | 0.858 | 0.771 | 0.965 | 0.992 | 0.942 | 0.801 | 0.853 | 0.556 | 0.543 | 0.455 | 0.395 | 0.317 | 0.201
LCLC-97TM1 | 0.928 | 0.948 | 0.933 | 0.856 | 0.56 | 0.196 | 0.143 | 0.215 | 0.173 | 0.191 | 0.396 | 0.544 | 0.406 | 0.318 | 0.216 | 0.251 | 0.187 | 0.192 | 0.111 | 0.126
NCI-H727 | 0.944 | 0.873 | 0.933 | 0.91 | 0.718 | 0.598 | 0.556 | 0.647 | 0.621 | 0.668 | 0.642 | 0.771 |  | 0.659 | 0.633 |  | 0.461 | 0.313 | 0.232 | 0.239
NCI-H2228 | 0.909 | 0.957 | 1.24 | 1 | 0.322 | 0.299 | 0.28 | 0.236 | 0.152 | 0.365 | 0.857 | 0.717 | 0.543 | 0.418 | 0.327 | 0.483 | 0.554 | 0.469 | 0.319 | 0.264
LK-2 | 1.25 | 1.21 | 1.43 | 1.2 | 0.617 | 0.159 | 0.175 | 0.183 | 0.158 | 0.158 | 0.795 | 0.814 | 0.698 | 0.632 | 0.329 | 0.645 | 0.632 | 0.744 | 0.438 | 0.443
PC-3 [JPC-3] | 1.09 | 1.1 | 0.594 | 1.07 | 0.751 | 0.899 | 0.902 | 0.961 | 1.01 | 0.59 | 1.23 | 1.31 | 0.887 | 1.12 | 0.541 | 0.751 | 0.812 | 0.876 | 0.628 | 0.53
NCI-H596 | 0.87 | 0.859 | 0.791 | 0.795 | 0.434 | 0.956 | 0.86 | 0.916 | 0.945 | 0.432 | 0.652 | 0.629 | 0.638 | 0.671 | 0.571 | 0.416 | 0.377 | 0.372 | 0.361 | 0.251

From the supplement of paper PMC10307832
